The values that follow come from ChEMBL document CHEMBL1158236, “Two new naphthoquinones with antiviral activity from Rhinacanthus nasutus” (J Nat Prod, 1996).

≈ marks a conversion by molar mass, not a printed value.

What all share (assay type): functional, organism-based
Test [1] has as its system Human betaherpesvirus 5. Put plainly: Antiviral activity against human cytomegalovirus by plaque-neutralization assay.
For test [2], the system named is Murid betaherpesvirus 1. Put plainly: Antiviral activity against mouse cytomegalovirus by plaque-neutralization assay.
Test [3] relates to Murid betaherpesvirus 1. Put plainly: Antiviral activity against mouse cytomegalovirus assessed as effect on virus-induced cytopathic effect. (In general: Damage to the host cells serves as the signal in cytopathic effect assays.)
For test [4], the system named is Human alphaherpesvirus 2. Put plainly: Antiviral activity against herpes simplex virus type 2 assessed as effect on virus-induced cytopathic effect.
In test [5] the test system is Influenza A virus. Put plainly: Antiviral activity against influenza A virus by hemadsorption inhibition assay.
The subject of test [6] is Respiratory syncytial virus. Put plainly: Antiviral activity against respiratory syncytial virus assessed as effect on virus-induced cytopathic effect. The conditions noted are these: human respiratory syncytial virus.

As for `CC(C)(COC(=O)c1ccc2c(c1)OCO2)CC1=C(O)C(=O)c2ccccc2C1=O`, the EC50 in test [1] was found to be 0.22 µg/mL (≈ 0.539 µM); in test [2], 9.5 µg/mL (≈ 23.3 µM); in test [3], 9.5 µg/mL (≈ 23.3 µM).

Regarding `Nc1nc2c(ncn2COCCO)c(=O)[nH]1` [ACYCLOVIR], the EC50 in test [4] came out at 2.3 µg/mL (≈ 10.2 µM).

In turn, `NC12CC3CC(CC(C3)C1)C2` [AMANTADINE] returned an EC50 in test [5] of 0.054 µg/mL (≈ 0.357 µM).

For `Nc1nc2c(ncn2COC(CO)CO)c(=O)[nH]1` [GANCICLOVIR], the EC50 is 3.4 µg/mL (≈ 13.3 µM) in test [1], 13.8 µg/mL (≈ 54.1 µM) in test [2] and 5 µg/mL (≈ 19.6 µM) in test [3].

Regarding `C/C=C(\C)CC/C=C(\C)C(=O)OCC(C)(C)CC1=C(O)C(=O)c2ccccc2C1=O` [RHINACANTHIN C], the EC50 in test [1] stood at 0.02 µg/mL (≈ 0.0487 µM); in test [2], 0.57 µg/mL (≈ 1.39 µM); in test [3] it was 1.1 µg/mL (≈ 2.68 µM).

In the case of `NC(=O)c1ncn([C@@H]2O[C@H](CO)[C@@H](O)[C@H]2O)n1` [RIBAVIRIN], the EC50 in test [6] was 1.8 µg/mL (≈ 7.37 µM).

What is called EC50 is the concentration that produces a half-maximal response.
